Experiments:
hPBMCs = experiment: metabolic activity (MA) test, extracellular acidification of PBMCs; assay type: cell-based, human; settings: hPBMCs of cancer patients, increasing PSA concentrations, FIGS. 8A-D
Description: Fresh peripheral blood mononuclear cells (PBMCs) were isolated by Ficoll-Paque (UNI-SEP, Novamed) and gradient centrifugation. The pellet was resuspended in working solution (WS) (PBS with calcium and magnesium) including the fluorescent probe (HPTS) at a final concentration of 5×10^6 cells/ml.
Each well in a black non-binding, low-volume 384 multi-well plate (Greiner Bio-One) was loaded with 10 μl of the PBMCs solution and 10 μl of working solution plus HPTS including one of ten reagents in 8 increasing concentrations. Thus the final concentration of the probe in each well was 1 μM, and the final concentration of the PBMCs was 2.5×10^6 cells/ml in 20 μl physiological working solution containing 10 mM phosphate buffer around pH 7.3. […] The acidification process was monitored each 5 min during 1 hour of incubation at 37° C. by a commercial fluorescence scanner (TECAN Infinite M200). First, the scanner monitored the acidification process without sealing (“OPEN” mode) during 30 min (6 cycles) and then, to avoid ventilation of CO2 and NH3 from each well, the multi-well plate was sealed hermetically (ThermalSeal RT™, EXCEL Scientific, Inc.) (“CLOSE” mode). Next, the acidification process was monitored again during 30 min (6 cycles). In order to increase the signal to noise ratio, the fluorescence intensities at 513 nm were measured sequentially under excitation at 455 nm and 403 nm per well. […]

[1] = in aqueous (physiological) buffers; cited from earlier work
many cell types = settings: intracellular pH measurements, overnight incubation at 2 mM; cited from earlier work

| Compound | MA-test profile under stimulation (hPBMCs) | pKa [1] | toxicity (many cell types) |
| --- | --- | --- | --- |
| PSA: normal prostate tissue specific antigen peptide (146-154aa) recognized by cytotoxic T lymphocytes (PALGTTCYA; UniProt P07288 146-154, looked up, fragment) | marked peaks at optimal concentrations |  |  |
| O=S(=O)(O)c1cc(O)c2ccc3c(S(=O)(=O)O)cc(S(=O)(=O)O)c4ccc1c2c34 [HPTS, 8-Hydroxypyrene-1,3,6-trisulfonic acid] |  | ~7.3 | low-toxicity |
